US5821363A, “Antineoplastic use and pharmaceutical compositions containing them” (priority 1996, dated 1998)
≈ marks a conversion by molar mass, not a printed value. Where two headings read alike, the source gives them in different places.

Tests used:
KB-V1 = test: killing of multidrug resistant KB-V1 cells; assay type: cell-based; details: for IC50: Homo sapiens
KB-3-1 = test: killing of drug sensitive (non-MDR) KB-3-1 cells; assay type: cell-based; details: Homo sapiens
[1] = tested on: L1210 mouse leukemia carcinoma cells; test: cytotoxicity / inhibition of cell proliferation in L1210 leukemia cells; assay type: cell-based; details: for IC90: L1210, read-out: IC90 (90% growth inhibitory concentration)
tubulin = details: 20° C.; compared with taxol
[2] = tested on: A2780 human ovarian carcinoma; test: cytotoxicity in A2780 human ovarian carcinoma cells; assay type: cell-based
[3] = KB-V1, read-out: KB-V1 (IC50; nM)
[4] = KB 3-1, read-out: KB-3-1 (IC50; nM)
[5] = L1210, read-out: L1210 (IC50 μg/ml)
[6] = KB-V1 multidrug resistant cells, Table III, read-out: KB-V1 (IC50; nM)
[7] = ratio of IC50 KB-V1 to IC50 KB-3-1
[8] = KB-3-1 drug sensitive cells, Table III, read-out: KB-3-1 (IC50; nM)
[9] = L1210 leukemia, Table I, 50% inhibition of cell proliferation vs untreated control, read-out: L1210 (IC50 μg/ml)
[10] = Homo sapiens, A2780, read-out: A2780 (IC50 μg/ml)
[11] = A2780 human ovarian carcinoma, Table II, read-out: A2780 (IC50 μg/ml)

## CC(=O)O[C@H]1C(=O)[C@]23C[C@H]2C[C@H]2OC[C@@]2(OC(C)=O)[C@H]3[C@H](OC(=O)c2ccccc2)[C@]2(O)CC(OC(=O)[C@H](O)[C@@H](NC(=O)OC(C)(C)C)c3ccccc3)=C(C)[C@H]1C2(C)C [Compound 17, 13-(N-Boc-β-phenylisoserinyl)-7-deoxy-7β,8β-methano-Δ^12,13-iso-baccatin III]
KB-V1; [3]
  IC50: 13 nM
KB-V1; human, kb-v1 vs kb-3-1 cells
  Ratio: KBV-1/KB-3-1: 61
KB-3-1; [4]
  IC50: 0.22 nM
[1]
  IC90: 0.017 µg/mL (≈ 20.4 nM)
[1]; [5]
  IC50: 0.0018 µg/mL (≈ 2.16 nM)

## CC(=O)O[C@H]1C(=O)[C@@]2(C)[C@H]([C@H](OC(=O)c3ccccc3)[C@]3(O)CC(OC(=O)[C@H](O)[C@@H](NC(=O)OC(C)(C)C)c4ccccc4)=C(C)[C@H]1C3(C)C)[C@]1(OC(C)=O)CO[C@@H]1C[C@@H]2O [Compound 7, 13-(N-Boc-β-phenylisoserinyl)-Δ^12,13-iso-baccatin III]
KB-V1; [6]
  IC50: 40 nM
KB-V1; [7]
  Ratio: KBV-1/KB-3-1: 228
KB-3-1; [8]
  IC50: 0.2 nM
[1]; [9]
  IC50: 0.0046 µg/mL (≈ 5.41 nM)

## 7-deoxy-7β,8β-methano-taxol
tubulin
  induction of tubulin polymerization in vitro: able to induce tubulin polymerization in vitro at 20 °C in a manner very similar to taxol

## CC(=O)O[C@H]1C(=O)[C@@]2(C)[C@H]([C@H](OC(=O)c3ccccc3)[C@]3(O)C[C@H](OC(=O)[C@H](O)[C@@H](NC(=O)c4ccccc4)c4ccccc4)C(C)=C1C3(C)C)[C@]1(OC(C)=O)CO[C@@H]1C[C@@H]2O [taxol, reference compound]
KB-V1; [3]
  IC50: 15000 nM
KB-V1; human, kb-v1 vs kb-3-1 cells
  Ratio: KBV-1/KB-3-1: 11,538
  average ratio (IC50 KB-V1/IC50 KB-3-1): 7,570
[2]; [10]
  IC50: 0.002 to 0.003 µg/mL (≈ 2.34 to 3.51 nM)
KB-3-1; [4]
  IC50: 1.3 nM
[1]
  IC90: 0.018 µg/mL (≈ 21.1 nM)
[1]; [5]
  IC50: 0.017 µg/mL (≈ 19.9 nM)

## CC(=O)O[C@@]12CO[C@@H]1C[C@H](O)[C@@]1(C)C(=O)[C@H](O)C3=C(C)[C@@H](OC(=O)[C@H](O)[C@@H](NC(=O)OC(C)(C)C)c4ccccc4)C[C@@](O)([C@@H](OC(=O)c4ccccc4)[C@H]21)C3(C)C [taxotere, reference compound]
KB-V1; [6]
  IC50: 1700 nM
KB-V1; [7]
  Ratio: KBV-1/KB-3-1: 7,570
KB-V1; taxol and taxotere, average
  average ratio (IC50 KB-V1/IC50 KB-3-1): 7,570
[2]; [11]
  IC50: 0.001 to 0.0016 µg/mL (≈ 1.24 to 1.98 nM)
KB-3-1; [8]
  IC50: 0.25 nM
[1]; [9]
  IC50: 0.004 µg/mL (≈ 4.95 nM)

## COCO[C@H]1C[C@H]2OC[C@@]2(OC(C)=O)[C@H]2[C@H](OC(=O)c3ccccc3)[C@]3(O)CC(OC(=O)[C@H](O)[C@@H](NC(=O)NC(C)(C)C)c4ccccc4)=C(C)[C@H]([C@@H](OC(C)=O)C(=O)[C@]12C)C3(C)C [Compound 67, 7-(O-methoxymethyl)-13-(N-t-butylaminocarbonyl-β-phenylisoserinyl)-Δ^12,13-iso-baccatin III]
[2]; [10]
  IC50: 0.00042 µg/mL (≈ 0.47 nM)

## CC(=O)O[C@H]1C(=O)[C@]2(C)C=C[C@H]3OC[C@@]3(OC(C)=O)[C@H]2[C@H](OC(=O)c2ccccc2)[C@]2(O)CC(OC(=O)[C@H](O)[C@@H](NC(=O)OC(C)(C)C)c3ccccc3)=C(C)[C@H]1C2(C)C [Compound 18, 13-(N-Boc-β-phenylisoserinyl)-7-deoxy-Δ^6,7 -Δ^12,13-iso-baccatin III]
KB-V1; [3]
  IC50: 6.2 nM
KB-V1; human, kb-v1 vs kb-3-1 cells
  Ratio: KBV-1/KB-3-1: 34
KB-3-1; [4]
  IC50: 0.2 nM
[1]; [5]
  IC50: 0.0022 µg/mL (≈ 2.64 nM)

## CO[C@H]1C[C@H]2OC[C@@]2(OC(C)=O)[C@H]2[C@H](OC(=O)c3ccccc3)[C@]3(O)CC(OC(=O)[C@H](O)[C@@H](NC(=O)NC(C)(C)C)c4ccccc4)=C(C)[C@H]([C@@H](OC(C)=O)C(=O)[C@]12C)C3(C)C [Compound 73, 7-(O-methyl)-13-(N-t-butylaminocarbonyl-β-phenylisoserinyl)-Δ^12,13-iso-baccatin III]
[2]; [11]
  IC50: 0.00039 µg/mL (≈ 0.452 nM)

## COCO[C@H]1C[C@H]2OC[C@@]2(OC(C)=O)[C@H]2[C@H](OC(=O)c3ccccc3)[C@]3(O)CC(OC(=O)[C@H](O)[C@@H](NC(=O)OC(C)(C)C)c4ccccc4)=C(C)[C@H]([C@@H](OC(C)=O)C(=O)[C@]12C)C3(C)C [Compound 66, 7-(O-methoxymethyl)-13-(N-Boc-β-phenylisoserinyl)-Δ^12,13-iso-baccatin III]
KB-V1; [6]
  IC50: 0.046 nM
KB-V1; [7]
  Ratio: KBV-1/KB-3-1: 300
[2]; [11]
  IC50: 0.00026 µg/mL (≈ 0.291 nM)

## COCO[C@H]1C[C@H]2OC[C@@]2(OC(C)=O)[C@H]2[C@H](OC(=O)c3ccccc3)[C@]3(O)CC(OC(=O)[C@H](O)[C@@H](NC(=O)OCc4ccccc4)c4ccccc4)=C(C)[C@H]([C@@H](OC(C)=O)C(=O)[C@]12C)C3(C)C [Compound 64, 7-(O-methoxymethyl)-13-(N-Cbz-β-phenylisoserinyl)-Δ^12,13-iso-baccatin III]
[2]; [10]
  IC50: 0.0029 µg/mL (≈ 3.13 nM)

## CSCO[C@H]1C[C@H]2OC[C@@]2(OC(C)=O)[C@H]2[C@H](OC(=O)c3ccccc3)[C@]3(O)CC(OC(=O)[C@H](O)[C@@H](NC(=O)NC(C)(C)C)c4ccccc4)=C(C)[C@H]([C@@H](OC(C)=O)C(=O)[C@]12C)C3(C)C [Compound 72, 7-(O-methylthiomethyl)-13-(N-t-butylaminocarbonyl-β-phenylisoserinyl)-Δ^12,13-iso-baccatin III]
[2]; [10]
  IC50: 0.0004 µg/mL (≈ 0.44 nM)

## CC(=O)O[C@H]1C(=O)[C@]2(C)C=C[C@H]3OC[C@@]3(OC(C)=O)[C@H]2[C@H](OC(=O)c2ccccc2)[C@]2(O)CC(OC(=O)[C@H](O)[C@@H](NC(=O)NC(C)(C)C)c3ccccc3)=C(C)[C@H]1C2(C)C [Compound 38, 13-(N-(t-butylaminocarbonyl)-β-phenylisoserinyl)-7-deoxy-Δ^6,7 -Δ^12,13-iso-baccatin III]
KB-V1; [3]
  IC50: 360 nM
KB-V1; human, kb-v1 vs kb-3-1 cells
  Ratio: KBV-1/KB-3-1: 4,800
KB-3-1; [4]
  IC50: 0.078 nM

## CC(=O)O[C@H]1C(=O)[C@@]2(C)[C@H]([C@H](OC(=O)c3ccccc3)[C@]3(O)CC(OC(=O)[C@H](O)[C@@H](NC(=O)NC(C)(C)C)c4ccccc4)=C(C)[C@H]1C3(C)C)[C@]1(OC(C)=O)CO[C@@H]1C[C@@H]2O [Compound 32b, 13-(N-(t-butylaminocarbonyl)-β-phenylisoserinyl)-Δ^12,13-iso-baccatin III]
KB-V1; [6]
  IC50: 1100 nM
KB-V1; [7]
  Ratio: KBV-1/KB-3-1: 17,650
KB-3-1; [8]
  IC50: 0.081 nM
[1]; [9]
  IC50: 0.0053 µg/mL (≈ 6.24 nM)

## CCOCO[C@H]1C[C@H]2OC[C@@]2(OC(C)=O)[C@H]2[C@H](OC(=O)c3ccccc3)[C@]3(O)CC(OC(=O)[C@H](O)[C@@H](NC(=O)OC(C)(C)C)c4ccccc4)=C(C)[C@H]([C@@H](OC(C)=O)C(=O)[C@]12C)C3(C)C [Compound 41, 7-(O-ethoxymethyl)-13-(N-Boc-β-phenylisoserinyl)-Δ^12,13-iso-baccatin III]
KB-V1; [6]
  IC50: 0.77 nM
KB-V1; [7]
  Ratio: KBV-1/KB-3-1: 170
KB-3-1; [8]
  IC50: 0.011 nM
[1]; [9]
  IC50: 0.0007 µg/mL (≈ 0.771 nM)
